Test [1] concerns ROP SD suckling rats induced by hyperbaric oxygen chamber. Kind of test: ROP (retinopathy of prematurity) SD suckling rats induced by hyperbaric oxygen chamber, eye dropping, EB staining of retina. Format: in vivo.
Test [2] deals with AMD C57BL/6 mice induced by laser retinal photocoagulation. The test is described as follows: AMD (age-related macular degeneration) C57BL/6 mice induced by laser retinal photocoagulation, eye dropping, EB staining and Trypsin enzymatic hydrolysis of retina. Format: in vivo. The conditions noted are these: for eyeball retinal leakage condition (in words) / number of retinal neovascularization / neovascularization condition (in words): 10 μmol/L, eye dropping twice per day.
Excerpt: (§1) 9-week-old C57BL/6 mice were subject to retinal photocoagulation by krypton laser (647 nm), with a power of 360 mW, a diameter of 50 μm, a time of 0.05 s, 8 photocoagulation site for each eye, for inducing the neovascularization in choroid, and gradually proceeding to retinal hyperplasia to obtain AMD C57BL/6 mice. AMD C57BL/6 mice were divided into a dropping group and a non-dropping group.
as §1, with “group. […] The animals were sacrificed after eye dropping for 2 weeks, and the retina was stripped for EB staining to observe the retinal leakage conditions, and for Trypsin enzymatic hydrolysis to observe the density of neovascularization.” for “group.”
9-week-old C57BL/6 mice were subject to retinal photocoagulation by krypton laser (647 nm), with a power of 360 mW, a diameter of 50 μm, a time of 0.05 s, 8 photocoagulation site for each eye, for inducing the neovascularization in choroid, and gradually proceeding to retinal hyperplasia to obtain AMD C57BL/6 mice. […] Wherein, the left eye was dropped with human TTR prepared in Example 5, or human TTR prepared in Example 5 added with the excipient, specifically with 10 μmol/L human TTR (saline solution), 10 μmol/L human TTR (saline solution+6 mg/mL sodium carboxymethyl cellulose), 10 μmol/L human TTR (saline solution+6 mg/mL PEG400), 10 μmol/L human TTR (saline solution+0.4 mg/mL dextran 70) and 10 μmol/L human TTR (saline solution+20 mg/mL chondroitin sulfate A sodium salt); the right eye was dropped with saline solution, or saline solution added with the excipient as control, specifically with saline solution, saline solution+6 mg/mL sodium carboxymethyl cellulose, saline solution+6 mg/mL PEG400, saline solution+0.4 mg/mL dextran 70 and saline solution+20 mg/mL chondroitin sulfate A sodium salt). In addition, there was another group of normal […] C57BL/6 mice as a normal control group (5 mice). The animals were sacrificed after eye dropping for 2 weeks, and the retina was stripped for EB staining to observe the retinal leakage conditions, and for Trypsin enzymatic hydrolysis to observe the density of neovascularization.
9-week-old C57BL/6 mice were subject to retinal photocoagulation by krypton laser (647 nm), with a power of 360 mW, a diameter of 50 μm, a time of 0.05 s, 8 photocoagulation site for each eye, for inducing the neovascularization in choroid, and gradually proceeding to retinal hyperplasia to obtain AMD C57BL/6 mice. […] Wherein, the left eye was dropped with human TTR prepared in Example 5, or human TTR prepared in Example 5 added with the ligand, specifically with 10 μmol/L human TTR (saline solution+2% hyaluronic acid), 10 μmol/L human TTR (saline solution+2% hyaluronic acid+10 diclofenac sodium), 10 μmol/L human TTR (saline solution+2% hyaluronic acid+5 μmol/L vitamin A+5% Tween 80) and 10 μmol/L human TTR (saline solution+2% hyaluronic acid+5 μmol/L luteoloside); the right eye was dropped with saline solution+2% hyaluronic acid, or saline solution+2% hyaluronic acid+ligand as control, specifically with saline solution+2% hyaluronic acid, saline solution+2% hyaluronic acid+10 diclofenac sodium, saline solution+2% hyaluronic acid+5 μmol/L vitamin A+5% Tween 80 and saline solution+2% hyaluronic acid+5 luteoloside. In addition, there was another group of normal C57BL/6 mice as a normal control group (5 mice). The animals were sacrificed after eye dropping for 2 weeks, and the retina was stripped for EB staining to observe the retinal leakage conditions, and for Trypsin enzymatic hydrolysis to observe the density of neovascularization.

The test system of test [3] is DR SD rats induced by STZ. Kind of test: DR (diabetic retinopathy) SD rats induced by STZ, eye dropping, EB staining and Trypsin enzymatic hydrolysis of retina. Format: in vivo. The conditions noted are these: for eyeball retinal leakage condition (in words) / number of retinal neovascularization (in words): eye dropping twice per day. As for the experimental part:
8-week-old SD rats weighing 200-250 g was fasted for 12-18 h, and treated with intraperitoneally injection of 2% STZ (60 mg/kg), followed by cutting the tail and collecting blood thereof after 48 h and 72 h. […] DR SD rats were divided into 2 large groups, one is DR SD rats without any treatment (5 rats), and the other is the human TTR eye dropping group (25 rats) dropped with the human TTR prepared in Example 5, each left eye dropped with human TTR (5-20 μmol/L) (normal saline+2% hyaluronic acid) twice a day, and each right eye dropped with saline+2% hyaluronic acid; in addition, another group of normal SD rats (No eye dropping) served as a normal control group (5 rats).
8-week-old SD rats weighing 200-250 g was fasted for 12-18 h, and treated with intraperitoneally injection of 2% STZ (60 mg/kg), followed by cutting the tail and collecting blood thereof after 48 h and 72 h. […]
8-week-old SD rats weighing 200-250 g, was fasted for 12-18 h, and treated with intraperitoneally injection of 2% STZ (60 mg/kg), followed by cutting the tail and collecting blood thereof after 48 h and 72 h. […] Wherein, the left eye was dropped with human TTR prepared in Example 5, or human TTR prepared in Example 5 added with the ligand, specifically with 10 μmol/L human TTR (saline solution+2% hyaluronic acid), 10 μmol/L human TTR (saline solution+2% hyaluronic acid+10 diclofenac sodium), 10 μmol/L human TTR (saline solution+2% hyaluronic acid+5 μmol/L vitamin A+5% Tween 80) and 10 μmol/L human TTR (saline solution+2% hyaluronic acid+5 luteoloside); the right eye was dropped with saline solution+2% hyaluronic acid, or saline solution+2% hyaluronic acid+ligand as control, specifically with saline solution+2% hyaluronic acid, saline solution+2% hyaluronic acid+10 diclofenac sodium, saline solution+2% hyaluronic acid+5 μmol/L vitamin A+5% Tween 80 and saline solution+2% hyaluronic acid+5 μmol/L luteoloside. In addition, there was another group of normal SD rats as a normal control group (5 rats). All SD rats were fed for 3 months, followed by stripping the retina for staining with Evans Blue (EB) to observe the retinal vascular leakage, for Trypsin enzymatic hydrolysis to observe the density of neovascularization.

For a further test, the target named is TTR dimer (Homo sapiens, UniProt P02766). The note with it: static co-crystallization model in the PDB database (3CFQ); cited from earlier work.
Another test concerns the target T1, TTR (Homo sapiens, UniProt P02766).
T1 construct: made in house; host or cells: E. coli BL21 (DE3)
Kind of test: Affinity binding equilibrium dissociation constant Kd of TTR and ligand molecules by nano ITC. The conditions noted are these: 10 μmol/L TTR solution, 100 μmol/L ligand solution dropped at 1 μL/min, read-out: Affinity binding equilibrium dissociation constants (Kd) of ligand molecule and TTR. As for the experimental part:
The affinity binding equilibrium dissociation constant Kd of TTR and each ligand molecule or salts thereof described in Example 24 was determined by nano ITC (TA).

The mark [4] stands for this setting: ROP SD suckling rats, 10 μmol/L in saline solution + 2% hyaluronic acid, eyedropping once per day, 5 days.
Where [5] appears, read: AMD C57BL/6 mice, 10 μmol/L in saline solution + 2% hyaluronic acid, eyedropping twice per day, 2 weeks.
Setting [6] is: DR SD rats induced by STZ, 3 months.
Setting [7] is: DR SD rats, 10 μmol/L in saline solution + 2% hyaluronic acid, eyedropping twice a day, 3 months.
Setting [8] is: ROP SD suckling rats induced by hyperbaric oxygen chamber, 5 days of eye dropping, ligand independently (no TTR) in saline + 2% hyaluronic acid: 10 μmol/L diclofenac sodium/5 μmol/L vitamin A + 5% Tween 80/5 μmol/L luteoloside, right eye.
[9] abbreviates: AMD C57BL/6 mice induced by laser retinal photocoagulation, 2 weeks of eye dropping, ligand independently (no TTR) in saline + 2% hyaluronic acid: 10 μmol/L diclofenac sodium/5 μmol/L vitamin A + 5% Tween 80/5 μmol/L luteoloside, right eye.
Where [10] appears, read: DR SD rats induced by STZ, 3 months of eye dropping, ligand independently (no TTR) in saline + 2% hyaluronic acid: 10 μmol/L diclofenac sodium/5 μmol/L vitamin A + 5% Tween 80/5 μmol/L luteoloside, right eye.

As to “human TTR-CL: human mature TTR losing C terminus-TNPKE, amino acid sequence of SEQ ID NO: 11”, in test [1] (setting [4]), the Retinal leakage area stood at 3.0%. Further, in test [2] (setting [5]), the “No. of retinal neovascularization (10 visual fields)” value (“No. of retinal neovascularization” below) came to 11 ± 2 and the Retinal leakage area is reported as 4.8 ± 0.6%. In test [2] (AMD C57BL/6 mice, 2 weeks), the “eyeball retinal leakage condition (in words)” value is reported as “inhibited significantly” and the “number of retinal neovascularization / neovascularization condition (in words)” value is on record as “reduced significantly”. In test [3] (setting [6]), the “eyeball retinal leakage condition (in words)” value is given as “significantly inhibited” and the “number of retinal neovascularization (in words)” value is recorded as “reduced significantly”. Moreover, in test [3] (setting [7]), the “No. of retinal neovascularization” value is on record as 10 ± 1 and the Retinal leakage area is given as 5.7 ± 0.9%.
With `O=C(O)Cc1ccccc1Nc1c(Cl)cccc1Cl` [diclofenac], the “molecules of ligand that one molecule of TTR dimer can bind” value on TTR dimer is given as “two molecules”.
Turning to “rat TTR: recombinant rat TTR, amino acid sequence SEQ ID NO: 9”, in test [1] (setting [4]), the Retinal leakage area is 3.6%. Also, in test [3] (setting [6]), the “eyeball retinal leakage condition (in words)” value was “significantly inhibited” and the “number of retinal neovascularization (in words)” value is “reduced significantly”. Also, in test [3] (setting [7]), the “No. of retinal neovascularization” value was 13 ± 2 and the Retinal leakage area turned out to be 6.2 ± 0.7%.
For `O=c1cc(-c2ccc(O)c(O)c2)oc2cc(O[C@@H]3O[C@H](CO)[C@@H](O)[C@H](O)[C@H]3O)cc(O)c12` [Luteoloside, luteoloside, reference compound], at TTR, the Kd was determined as 129 nM. For the same compound, the Retinal leakage area is reported as 51.2 ± 6.8% in test [1] (setting [8]), 21.3 ± 2.2% in test [2] (setting [9]) and 27.6% in test [3] (setting [10]). The “No. of retinal neovascularization” value stood at 82 ± 8 in test [2] (setting [9]) and 79 ± 9 in test [3] (setting [10]).
Consider “mouse TTR: recombinant mouse TTR, amino acid sequence SEQ ID NO: 10”, for which, in test [2] (setting [5]), the “No. of retinal neovascularization” value is listed as 10 ± 3 and the Retinal leakage area came to 4.2 ± 0.5%. In test [2] (AMD C57BL/6 mice, 2 weeks), the “eyeball retinal leakage condition (in words)” value is “inhibited significantly” and the “number of retinal neovascularization / neovascularization condition (in words)” value is reported as “reduced significantly”.
Regarding `CC1=C(/C=C/C(C)=C/C=C/C(C)=C/CO)C(C)(C)CCC1` [Vitamin A, retinol, reference compound], the Kd at TTR is 22.7 nM. In addition, the Retinal leakage area in test [1] (setting [8]) is listed as 46.9 ± 4.9%; in test [2] (setting [9]) it was 26.7 ± 3.4%; in test [3] (setting [10]), 28.9%. Besides, the “No. of retinal neovascularization” value in test [2] (setting [9]) is given as 79 ± 10; in test [3] (setting [10]), 76 ± 8.
Turning to `O=C(O)Cc1ccccc1Nc1c(Cl)cccc1Cl` [Diclofenac sodium, diclofenac sodium, reference compound], at TTR, the Kd was found to be 45 nM. Besides, the results for the Retinal leakage area in test [1] (setting [8]), in test [2] (setting [9]) and in test [3] (setting [10]) were 48.5 ± 5.8%, 25.2 ± 3.0% and 30.4%, respectively. Moreover, the “No. of retinal neovascularization” value in test [2] (setting [9]) was found to be 85 ± 6; in test [3] (setting [10]) it was 80 ± 9.
`CC1=C(/C=C/C(C)=C/C=C/C(C)=C/CO)C(C)(C)CC=C1` [Vitamin A2, 3-dehydroretinol]: the Kd at TTR was determined as 23.5 nM.

(Values after patent publication US20220168434A1, “APPLICATION OF TRANSTHYRETIN IN ENTERING EYE AND PREPARING DROP” (YIZHOU (SHANGHAI) BIOLOGICAL MEDICINE CO, LTD., priority 2019, published 2022).)
